From patent US9200008B2 (ASKA PHARMACEUTICAL CO., LTD., priority 2010, dated 2015)

System: Human prostate cancer cell lines (PC-3 cells)
Assay: Measurement of cell death-inducing activity (Test Example 1)
Type: cell-based
Conditions: PC-3, 48 h, 48 hours after addition, tested at 10, 1, 0.1, 0.025 and 0.00625 μmol/L, qualitative evaluation of 10 fields, read-out: Concentration showing the cell death-inducing activity (cell death-inducing rate not less than 40%)
Method: The cell death-inducing activity of the compound represented by the formula (1) or the salt thereof was measured as follows.
Human prostate cancer cell lines (PC-3 cells) were seeded to 6-well plates at 1×10^5 cells/2 mL/well, and cultured in the presence of 5% CO2 at 37° C. for 48 hours. Thereafter, each compound was added thereto so as to provide 10, 1, 0.1, 0.025 and 0.00625 μmol/L. As a control, DMSO was added. After the addition, the cells were continuously cultured for 48 hours. […] When the cell death-inducing rate was not less than 40%, the compound was judged to have the cell death-inducing activity.

Q: How did the minimal effective concentration turn out when `COc1cc(Cl)ccc1-c1nc(C)c(C(=O)NNCc2cc(C)c(O)c(C)c2)s1` [Example 17-3, 2-(4-Chloro-2-methoxyphenyl)-4-methylthiazole-5-carboxylic acid N′-(4-hydroxy-3,5-dimethylbenzyl)hydrazide] was run?
A: 1 µM

Q: With `COc1cc(Cl)ccc1-c1cc(C(=O)N/N=C/c2ccc3c(c2)ncn3C)sn1` [Example 49-1] as the molecule, how does the minimal effective concentration read?
A: 0.025 µM

Q: Which minimal effective concentration does the source give for `CCn1nc(-c2ccccc2OC)cc1NC(=O)OCc1ccc2c(c1)nc1n2CCC1` [Example 9-255] here?
A: 1 µM

Q: `CCn1nc(-c2ccc(C)cc2OC)cc1NC(=O)OCc1ccc2c(c1)nc1n2CCC1` [Example 9-262] was tested. Which minimal effective concentration did it give?
A: 0.025 µM

Q: For `Cc1ccc(-c2cc(NC(=O)OCc3ccc4c(cnn4C)c3)n(C)n2)c(C)c1` [Example 9-285], which minimal effective concentration is on record?
A: 0.1 µM

Q: With `Cc1cc(/C=N/NC(=O)c2cnc(-c3ccccc3C)s2)ccc1O` [Example 23-51] as the molecule, how does the minimal effective concentration read?
A: 10 µM

Q: For `COc1ccc(/C=N/NC(=O)c2sc(-c3cccc(F)c3)nc2C)cc1O` [Example 23-72], which minimal effective concentration is on record?
A: 1 µM

Q: `Cc1ccc(-c2cc(NC(=O)OCc3ccc4c(c3)nc3n4CCOC3)n(C)n2)c(C)c1` [Example 9-251] was tested. Which minimal effective concentration did it give?
A: 0.025 µM

Q: Which minimal effective concentration does the source give for `CCn1nc(-c2ccc(Cl)cc2OC)cc1NC(=O)OCc1ccc2c(c1)nc1n2CCCC1` [Example 9-268] here?
A: 0.1 µM

Q: For `COCc1nc2cc(NC(=O)OCc3cc(-c4ccc(C)cc4OC)nn3C)ccc2n1C` [Example 13-93], which minimal effective concentration is on record?
A: 1 µM

Q: How did the minimal effective concentration turn out when `Cc1cc(/C=N/NC(=O)c2sc(-c3ccc(Cl)cc3C)nc2C)ccc1O` [Example 23-47] was run?
A: 1 µM

Q: With `CCc1nc(-c2ccc(Cl)cc2)sc1C(=O)N/N=C/c1ccc(O)c(C)c1` [Example 23-108] as the molecule, how does the minimal effective concentration read?
A: 10 µM

Q: For `COc1ccccc1-c1nc(C)c(C(=O)N/N=C/c2ccc3occc3c2)s1` [Example 23-159], which minimal effective concentration is on record?
A: 0.1 µM

Q: How did the minimal effective concentration turn out when `COc1cc(F)ccc1-c1cc(COC(=O)Nc2ccc3c(c2)ncn3C)nn1C` [Example 13-135] was run?
A: 0.1 µM

Q: Which minimal effective concentration does the source give for `COc1cc(Cl)ccc1-c1cc(NC(=O)OCc2ccc3c(c2)nc2n3CCOC2)n(C)n1` [Example 9-247] here?
A: 0.00625 µM

Q: For `COc1cc(Cl)ccc1-c1cc(COC(=O)Nc2ccc3c(c2)ncn3C)sn1` [Example 47-4], which minimal effective concentration is on record?
A: 0.00625 µM

Q: For `Cc1cc(/C=N/NC(=O)c2cc(-c3ccc(Cl)cc3)n[nH]2)cc(C)c1O` [Example 21-21], which minimal effective concentration is on record?
A: 1 µM

Q: For `COc1ccccc1-c1nc(C)c(C(=O)N/N=C/c2ccc(N(C)C)cc2)s1` [Example 23-88], which minimal effective concentration is on record?
A: 0.1 µM

Q: Which minimal effective concentration does the source give for `CCc1ccccc1-c1nc(C)c(NC(=O)OCc2ccc3nn(CC)cc3c2)s1` [Example 9-151] here?
A: 1 µM

Q: How did the minimal effective concentration turn out when `COc1cc(Cl)ccc1-c1nn(C)c(NC(=O)OCc2ccc3c(c2)ncn3C)c1C` [Example 9-311] was run?
A: 10 µM

Q: For `Cc1cccc(-c2nc(C)c(C(=O)N/N=C/c3cc(C)c(O)c(C)c3)s2)c1C` [Example 23-23], which minimal effective concentration is on record?
A: 1 µM

Q: How did the minimal effective concentration turn out when `Cc1ccc(-c2nc(C)c(NC(=O)OCc3ccc4c(c3)nnn4C)s2)c(C)c1` [Example 9-17] was run?
A: 0.025 µM

Q: Which minimal effective concentration does the source give for `CCc1nc(-c2ccc(C)cc2C)sc1NC(=O)OCc1ccc2c(c1)nc1n2CCCC1` [Example 9-354] here?
A: 1 µM

Q: Which minimal effective concentration does the source give for `CCn1cnc2cc(NC(=O)OCc3sc(-c4ccc(F)cc4C)nc3C)ccc21` [Example 13-16] here?
A: 0.025 µM

Q: Which minimal effective concentration does the source give for `CCOc1ccc(CN(C)NC(=O)c2sc(-c3ccc(Cl)cc3OC)nc2C)cc1` [Example 16-19] here?
A: 0.1 µM

Q: `CCc1nc(-c2ccc(F)cc2C)sc1NC(=O)OCc1ccc2nn(CC)cc2c1` [Example 9-369] was tested. Which minimal effective concentration did it give?
A: 1 µM

Q: `CCn1nc(-c2ccc(C)cc2OC)cc1NC(=O)OCc1ccc2c(c1)nc1n2CCCC1` [Example 9-270] was tested. Which minimal effective concentration did it give?
A: 0.1 µM

Q: `Cc1nc(-c2cccc(F)c2)sc1NC(=O)OCc1ccc2c(c1)ncn2C` [Example 9-44] was tested. Which minimal effective concentration did it give?
A: 1 µM

Q: Which minimal effective concentration does the source give for `COc1cc(F)ccc1-c1cc(NC(=O)OCc2ccc3c(c2)nc2n3CCC2)n(C)n1` [Example 9-256] here?
A: 0.1 µM

Q: For `COc1ccc(/C=N/NC(=O)c2sc(-c3ccccc3OC)nc2C)cc1F` [Example 23-68], which minimal effective concentration is on record?
A: 0.1 µM

Q: How did the minimal effective concentration turn out when `COc1ccc(/C=N/NC(=O)c2sc(-c3ccc(Cl)cc3)nc2C2CC2)cc1O` [Example 23-101] was run?
A: 10 µM

Q: `CCn1cnc2cc(COC(=O)Nc3cnc(-c4ccc(Cl)cc4OC)s3)ccc21` [Example 9-177] was tested. Which minimal effective concentration did it give?
A: 0.1 µM

Q: Which minimal effective concentration does the source give for `Cc1cc(Cl)ccc1-c1nc(C)c(COC(=O)Nc2ccc3c(c2)nc2n3CCCC2)s1` [Example 13-35] here?
A: 0.025 µM

Q: Which minimal effective concentration does the source give for `CCCn1cnc2cc(COC(=O)Nc3sc(-c4ccccc4OC)nc3C)ccc21` [Example 9-66] here?
A: 1 µM

Q: Which minimal effective concentration does the source give for `COc1ccc(COCC(=O)c2sc(-c3ccc(C)cc3C)nc2C)cc1` [Example 31-1, 1-[2-(2,4-Dimethylphenyl)-4-methylthiazol-5-yl]-2-(4-methoxybenzyloxy)ethanone] here?
A: 10 µM

Q: With `CCn1nnc2cc(COC(=O)Nc3sc(-c4ccc(Cl)cc4C)nc3C)ccc21` [Example 9-28] as the molecule, how does the minimal effective concentration read?
A: 0.025 µM

Q: `CCc1nc(-c2ccc(Cl)cc2OC)sc1NC(=O)OCc1ccc2c(c1)nc1n2CCC1` [Example 9-170] was tested. Which minimal effective concentration did it give?
A: 0.025 µM

Q: For `CCn1nc(-c2ccc(Cl)cc2Cl)cc1NC(=O)OC(C)c1ccc2c(c1)ncn2C` (centres unmarked) [Example 9-337], which minimal effective concentration is on record?
A: 10 µM

Q: How did the minimal effective concentration turn out when `COc1cc(F)ccc1-c1cc(COC(=O)Nc2ccc3c(c2)nc2n3CCC2)n(C)n1` [Example 13-106] was run?
A: 0.00625 µM

Q: With `Cc1ccccc1-c1nc(C)c(COC(=O)Nc2ccc3c(c2)ncn3C)s1` [Example 13-1, (1-Methyl-1H-benzimidazol-5-yl)carbamic acid 4-methyl-2-(2-methylphenyl)thiazol-5-ylmethyl ester] as the molecule, how does the minimal effective concentration read?
A: 0.1 µM

Q: With `Cc1cc(F)ccc1-c1nc(C)c(COC(=O)Nc2ccc3c(c2)nc2n3CCSC2)s1` [Example 43-1, (3,4-Dihydro-1H-2-thia-4a,9-diazafluoren-7-yl)carbamic acid 2-(4-fluoro-2-methylphenyl)-4-methylthiazol-5-ylmethyl ester] as the molecule, how does the minimal effective concentration read?
A: 0.1 µM

Q: `COc1ccccc1-c1nc(C)c(C(=O)N/N=C/c2ccc3c(c2)OCCN3C)s1` [Example 23-98] was tested. Which minimal effective concentration did it give?
A: 0.1 µM

Q: `CCc1nc(-c2ccc(C)cc2OC)sc1NC(=O)OCc1ccc2nn(CC)cc2c1` [Example 9-368] was tested. Which minimal effective concentration did it give?
A: 0.1 µM

Q: With `Cc1nc(-c2ccc(F)cc2Cl)sc1NC(=O)OCc1ccc2nn(C)cc2c1` [Example 9-148] as the molecule, how does the minimal effective concentration read?
A: 1 µM

Q: For `Cc1ccc(-c2nc(C)c(COC(=O)Nc3ccc4c(c3)ncn4C)s2)c(C)c1` [Example 13-8], which minimal effective concentration is on record?
A: 0.025 µM

Q: How did the minimal effective concentration turn out when `CCn1cc2cc(NC(=O)OCc3cc(-c4ccc(Cl)cc4OC)nn3C)ccc2n1` [Example 13-133] was run?
A: 0.00625 µM

Q: How did the minimal effective concentration turn out when `CCn1cnc2cc(COC(=O)Nc3sc(-c4ccc(OC)cc4OC)nc3C)ccc21` [Example 9-61] was run?
A: 0.00625 µM

Q: For `Cc1cc(Cl)ccc1-c1nc(C)c(NC(=O)OCc2ccc3c(c2)nnn3C)s1` [Example 9-20], which minimal effective concentration is on record?
A: 0.025 µM

Q: With `O=C(N/N=C/c1ccc([N+](=O)[O-])c(O)c1)c1cc(-c2ccc(Cl)cc2Cl)n[nH]1` [Example 21-15] as the molecule, how does the minimal effective concentration read?
A: 10 µM

Q: For `Cn1nc2c(c1NC(=O)OCc1ccc3c(cnn3C)c1)COc1ccccc1-2` [Example 9-324], which minimal effective concentration is on record?
A: 10 µM
